Experimental data as given in patent US20110065749A1, “METHOD AND PHARMACEUTICAL COMPOSITION FOR TREATMENT OF MENTAL DISORDERS” (ACTIVE CO. LTD., priority 2008, published 2011).
Where a name gives a salt, the structure may show the parent alone.

Columns and labels:
vertebral artery = conditions: dog experiments; cited from earlier work
Stiff Neck = assay: Case 14: seven subjects having stiff neck; assay type: in vivo, human; conditions: two 25 mg tablets two times a day, after two days, all seven subjects
Procedure: Case 14: Stiff Neck Stiff neck is often observed as a subjective symptom, and is one of the most serious complaints in the daily life. Seven subjects having stiff neck were given two 25 mg tablets of Cephadol® two times a day (after dinner and before sleeping).

Fibromyalgia [1] = assay: Case 16: fibromyalgia (2) patient; assay type: in vivo, human
From the text: […] There were persistent systemic malaise, lassitude, depressed mood, sleeplessness, neck stiffness and systemic pain. Their score of depression on Hamilton D scale was 25 to 28. No hematological abnormality was detected. As a result of overall judgment based on examinations including a tender point examination, they were diagnosed as having fibromyalgia. They were unresponsive to tricyclic or tetracyclic antidepressants, SSRIs, SNRIs, and Moclobemide. Then, they continued the treatment with 60 mg/day fluoxetine. […] It was concluded that the onset of their depression was due to the systemic pain, and the depression was improved by the drastic improvement of the systemic pain.

Bulimia [2] = assay: Case 8: bulimia (2) patient; assay type: in vivo, human; conditions: 150 mg/day
From the text: Patient was a person, who had been suffering from bulimia. The bulimia persisted even after their marriage and childbearing.

depression = assay: Case 9: depressed symptoms patient, HAMD; assay type: in vivo, human; conditions: 75 mg/day
From the text: For evaluation of the state of depression, for example, Hamilton's rating scale for depression (HAMD) is available. The HAMD was developed by Max Hamilton in 1960 for the purpose of measuring the severity of a patient diagnosed with depression (Hamilton, M., Journal of Neurology, Neurosurgery & Psychiatry, 23-56-62 (1960) and Hamilton, M., “Development of rating scale for primary depressive illness”, British Journal of Social and Clinical Psychology, 6: 278-296 (1967)). In view of its high usefulness, it is a representative scale of evaluation for depression, widely used in clinical researches and practices. The 17 item version is used for clinical trials of antidepressants in Japan, whereas the 21 item version and the 24 item version are used in Europe or other countries.
When the severity is calculated using Hamilton's rating scale for depression (HAMD), each item is evaluated with three grades of 0-2, or five grades of 0-4. For example, the case is diagnosed as severe where the point is 20 or higher and, as the point decreases, the symptom is diagnosed as being improved.
Case 9: Depressed Symptoms
Administration to the patient of 75 mg/day Cephadol® reduced the HAMD score from 20 points to 7 points after 3 days.

Schizophrenia = assay: Case 12: schizophrenia patient; assay type: in vivo, human; conditions: 150 mg/day
From the text: A person had been diagnosed with schizophrenia and had received antipsychotic drugs. In spite of the treatment with newest antipsychotic drugs, the dullness of thinking, depression, and obesity of the patient were not improved.

Withdrawal Symptoms = assay: Case 13: withdrawal symptoms on reducing other drugs; assay type: in vivo, human
Procedure: Case 13: Withdrawal Symptoms A office worker had been on 10 mg Paxil®, 2 mg Rohypnol® and 2 mg Depas® before sleeping. Although they had tried to reduce the doses of the drugs, emergence of withdrawal syndrome had hampered the reduction of the drugs. They started to take Cephadol®, 25 mg after dinner and 50 mg before sleeping. It made them able to be free from the other drugs in two weeks.

Fibromyalgia [3] = assay: Case 15: fibromyalgia (1) patient; assay type: in vivo, human
Procedure: They then visited the inventor's clinic. When the inventor started the treatment with 75 mg/day Cephadol®, systemic pain of the patient was improved in two days. […] As a result, they became able to perform usual household work, go outside, and further make a trip.

Fibromyalgia [4] = assay: Case 17: fibromyalgia (3) patient; assay type: in vivo, human
From the text: […] Being unresponsive to prescribed medicines, they were instructed to do gentle stretching exercise and massage, as well as thermotherapy on affected areas. However, their arthralgia was so terrible that they could not perform stretching exercise or other directions. They had pain at all the 18 tender points of the whole body, a jaw abnormality, and a strong pain at both knee joints, which made their unable to go to hospital on foot.

Bulimia [5] = assay: Case 7: bulimia (1) patient; assay type: in vivo, human; conditions: 150 mg/day
From the text: Patient was a person, who had been suffering from bulimia. Antidepressant, antianxiety, and other drugs were all ineffective. […] The effect of Cephadol® appeared in about two days.

[6] = 25 mg after dinner and 50 mg before sleeping

OC(CCCN1CCCCC1)(c1ccccc1)c1ccccc1 [Cephadol®, 1,1-diphenyl-4-piperidine-1-ylbuthan-1-ol monohydrochloride]
blood flow of the vertebral artery (vertebral artery): increase the blood flow thereof
spasm of the vertebral artery (vertebral artery): remit the spasm of the vertebral artery
stiff neck symptom (Stiff Neck): disappearance or a significant improvement of the symptom
score of Hamilton D scale (Fibromyalgia [1]; 100 mg/day added to fluoxetine, 25 to 28 before): 16
neck stiffness and systemic pain (Fibromyalgia [1]; 100 mg/day for one week, added to 60 mg/day fluoxetine): reduced neck stiffness and systemic pain
activity of daily living (Fibromyalgia [1]; 100 mg/day, after two weeks): improved drastically
duration of the effect (Bulimia [2]): more than two
overeating (Bulimia [2]): stopped their overeating
side effects (Bulimia [2]; more than two months): without any side effects
side effects (depression): There were side effects
HAMD score (depression; after 3 days, from 20 points): 7 points
appetite and body weight (Schizophrenia): reduced their appetite and body weight
side effects and relapse of schizophrenia (Schizophrenia): no side effects, nor relapse of schizophrenia
thinking speed and depression (Schizophrenia): improved their subjective and objective thinking speed and depression
side effects (Withdrawal Symptoms; [6]): no side effects
time until free from the other drugs (Paxil, Rohypnol, Depas) (Withdrawal Symptoms; [6]): two
outcome after tapering Cephadol (Withdrawal Symptoms; dose reduced from 50 mg to 25 mg, and to 0 mg): discontinuation of all the drugs
systemic pain (Fibromyalgia [3]; 75 mg/day, in two days): improved
mobility of large joints (objective) (Fibromyalgia [3]; 150 mg/day): the mobility of large joints increased
pain at 18 tender points including low back pain (Fibromyalgia [3]; 150 mg/day): totally improved
arthralgia (Fibromyalgia [3]; 150 mg/day, increased one week later): complete elimination of arthralgia
pain at both knee joints (Fibromyalgia [4]; 75 mg/day): improved the pain at both knee joints
systemic pain (Fibromyalgia [4]; 75 mg/day): eliminated the systemic pain
mobility of large joints (objective) (Fibromyalgia [4]; 125 mg/day): the mobility of large joints increased
pain at both knee joints (Fibromyalgia [4]; dosage increased to 125 mg/day): the pain at both knee joints also disappeared
pain at both knee joints (Fibromyalgia [4]; dosage reduced to 75 mg/day, on the next day): recurrence of the pain at both knee joints
pain at both knee joints (Fibromyalgia [4]; dose re-increased to 125 mg/day, on the next day): eliminated the pain at both knee joints
side effects (Bulimia [5]): no side effects
overeating (Bulimia [5]; previously two to three times a day): significantly improved overeating
